Patent publication US9018208B2, “Heterocycles as potassium channel modulators” (Icagen Inc., priority 2007, dated 2015)
pEC50: −log10 of the molar value. Read-outs that look alike come from different tables or passages of the source.

Test system: SH-SY5Y M-currents (KCNQ2, KCNQ3 and KCNQ5)
Assay: SH-SY5Y native cell line FLIPR assay (voltage-sensitive dye DiBAC)
Format: cell-based, mouse neuroblastoma, rat glioma hybrid cell line
Method in brief: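 Response is peak DiBAC fluorescence change, normalised to the maximum from a positive control agent, sampled every 30 s over 25 min. Before compound addition, SH-SY5Y cells differentiated with PGE1 plus isomethylbutylxanthine were dye-loaded for 1 h in EBSS with […] DiBAC.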

[1] = FLIPR assay, SH-SY5Y native cell line, Table 2, read-out: SH-SY5Y EC50
[2] = FLIPR assay, SH-SY5Y native cell line, Table 1, read-out: SH-SY5Y EC50
[3] = SH-SY5Y native cell line, FLIPR assay (Table 3), read-out: SH-SY5Y EC50

| SMILES | pEC50 [1] | further results |
| --- | --- | --- |
| O=C(Cc1ccc(F)cc1)Nc1nc2ccc(C(F)(F)F)cn2c1-c1nccs1 [Compound 84, 2-(4-fluorophenyl)-N-(3-(thiazol-2-yl)-6-(trifluoromethyl)imidazo[1,2-a]pyridin-2-yl)acetamide] | – | pEC50 [2]: > 6.30 |
| CC(CC(=O)Nc1nc2ccccn2c1-c1nccs1)C(F)(F)F (centres unmarked) [Compound 408, 4,4,4-trifluoro-3-methyl-N-(3-(thiazol-2-yl)imidazo[1,2-a]pyridin-2-yl)butanamide] | – | pEC50 [3]: 5.00 to 5.52 |
| C=Cc1c(NC(=O)Cc2ccc(F)cc2)nc2cc(C(F)(F)F)ccn12 [Compound 426, 2-(4-fluorophenyl)-N-(7-(trifluoromethyl)-3-vinylimidazo[1,2-a]pyridin-2-yl)acetamide] | – | pEC50 (FLIPR assay, SH-SY5Y native cell line, Table 5, read-out: SH-SY5Y EC50): 5.52 to 6.30 |
| CC(C)(C)CC(=O)Nc1nc2ccc(F)cn2c1-c1cccc(C(F)(F)F)n1 [Compound 361, N-(6-fluoro-3-(6-(trifluoromethyl)pyridin-2-yl)imidazo[1,2-a]pyridin-2-yl)-3,3-dimethylbutanamide] | – | pEC50 [3]: > 6.30 |
| O=C(COCc1ccccc1)Nc1nc2ccc(F)cn2c1-c1ccc(OC(F)(F)F)cc1 [Compound 237, 2-(benzyloxy)-N-(6-fluoro-3-(4-(trifluoromethoxy)phenyl)imidazo[1,2-a]pyridin-2-yl)acetamide] | 5.00 to 5.52 | – |
| O=C(Cc1ccc(F)cc1)Nc1nc2ccc(F)cn2c1-c1cc(C(F)(F)F)ccn1 [Compound 410, N-(6-fluoro-3-(4-(trifluoromethyl)pyridin-2-yl)imidazo[1,2-a]pyridin-2-yl)-2-(4-fluorophenyl)acetamide] | – | pEC50 [3]: > 6.30 |
| CC(C)C(C)C(=O)Nc1nc2ccc(F)cn2c1-c1ccc(F)cc1 (centres unmarked) [Compound 162, N-(6-fluoro-3(4-fluorophenyl)imidazo[1,2-a]pyridin-2-yl)-2,3-dimethylbutanamide] | 5.52 to 6.30 | – |
| O=C(Cc1ccccc1)Nc1nc2ccc(F)cn2c1-c1ccc(F)cc1F [Compound 115, N-(3-(2,4-difluorophenyl)-6-fluoroimidazo[1,2-a]pyridin-2-yl)-2-phenylacetamide] | 5.52 to 6.30 | – |
| CC(C(=O)Nc1nc2cc(C(F)(F)F)ccn2c1-c1ccc(F)cc1)c1ccccc1 (centres unmarked) [Compound 114, N-(3-(4-fluorophenyl)-7-(trifluoromethyl)imidazo[1,2-a]pyridin-2-yl)-2-phenylpropanamide] | 5.52 to 6.30 | – |
| O=C(CC1CCCC1)Nc1nc2ccc(F)cn2c1-c1ccccc1 [Compound 94, 2-cyclopentyl-N-(6-fluoro-3-phenylimidazo[1,2-a]pyridin-2-yl)acetamide] | > 6.30 | – |
| CC(C(=O)Nc1nc2ccc(F)cn2c1-c1ccc(OC(F)(F)F)cc1)C(C)(C)C (centres unmarked) [Compound 235, N-(6-fluoro-3-(4-(trifluoromethoxy)phenyl)imidazo[1,2-a]pyridin-2-yl)-2,3,3-trimethylbutanamide] | > 6.30 | – |
| O=C(Nc1cn2cc(F)ccc2n1)C(F)(F)F [Compound 10, 2,2,2-trifluoro-N-(6-fluoroimidazo[1,2-a]pyridin-2-yl)acetamide] | – | pEC50 [2]: 5.00 to 5.52 |
| CC(C)(C)CC(=O)Nc1nc2ccc(F)cn2c1-c1ccc(F)c(F)c1 [Compound 212, N-(3-(3,4-difluorophenyl)-6-fluoroimidazo[1,2-a]pyridin-2-yl)-3,3-dimethylbutanamide] | > 6.30 | – |
| CC(CC(=O)Nc1nc2ccccn2c1-c1cc(C(F)(F)F)ccn1)C(F)(F)F (centres unmarked) [Compound 405, 4,4,4-trifluoro-3-methyl-N-(3-(4-(trifluoromethyl)pyridin-2-yl)imidazo[1,2-a]pyridin-2-yl)butanamide] | – | pEC50 [3]: 5.52 to 6.30 |
| CO[C@H](C(=O)Nc1nc2ccc(F)cn2c1-c1ccc(OC(F)(F)F)cc1)c1ccccc1 [Compound 254, (S)—N-(6-fluoro-3-(4-(trifluoromethoxy)phenyl)imidazo[1,2-a]pyridin-2-yl)-2-methoxy-2-phenyl acetamide] | 5.00 to 5.52 | – |
| O=C(Cc1cccc(Cl)c1)Nc1nc2ccc(C(F)(F)F)cn2c1CC1CCCCC1 [Compound 43, 2-(3-chlorophenyl)-N-(3-(cyclohexylmethyl)-6-(trifluoromethyl)imidazo[1,2-a]pyridin-2-yl)acetamide] | – | pEC50 [2]: > 6.30 |
| Cc1ccc2nc(NC(=O)C3CCC(F)(F)CC3)c(-c3cc(C(F)(F)F)ccn3)n2n1 [Compound 397, 4,4-difluoro-N-(6-methyl-3-(4-(trifluoromethyl)pyridin-2-yl)imidazo[1,2-b]pyridazin-2-yl)cyclohexanecarboxamide] | – | pEC50 [3]: 5.00 to 5.52 |
| CC(CC(=O)Nc1nc2ccccn2c1-c1cccc(OC(F)(F)F)c1)C(F)(F)F (centres unmarked) [Compound 343, 4,4,4-trifluoro-3-methyl-N-(3-(3-(trifluoromethoxy)phenyl)imidazo[1,2-a]pyridin-2-yl)butanamide] | 5.52 to 6.30 | – |
| Cc1cccc2nc(NC(=O)CC(C)(C)C)c(-c3cccc(C(F)(F)F)c3)n12 [Compound 419, 3,3-dimethyl-N-(5-methyl-3-(3-(trifluoromethyl)phenyl)imidazo[1,2-a]pyridin-2-yl)butanamide] | – | pEC50 (FLIPR assay, SH-SY5Y native cell line, Table 4, read-out: SH-SY5Y EC50): > 6.30; pEC50 (unit inferred, read-out: SH-SY5Y_EC50): 6.47 |
| O=C(Cc1ccccc1)Nc1nc2ccc(F)cn2c1-c1ccc(F)c(F)c1 [Compound 211, N-(3-(3,4-difluorophenyl)-6-fluoroimidazo[1,2-a]pyridin-2-yl)-2-phenylacetamide] | > 6.30 | – |
| O=C(Cc1ccc(F)cc1)Nc1nc2cc(Cl)c(Cl)cn2c1-c1ccc(OC(F)(F)F)cc1 [Compound 217, N-(6,7-dichloro-3-(4-(trifluoromethoxy)phenyl)imidazo[1,2-a]pyridin-2-yl)-2-(4-fluorophenyl)acetamide] | 5.52 to 6.30 | – |
| CC(C)(C)OCCC(=O)Nc1nc2ccc(F)cn2c1-c1cccc(OC(F)(F)F)c1 [Compound 277, 3-tert-butoxy-N-(6-fluoro-3-(3-(trifluoromethoxy)phenyl)imidazo[1,2-a]pyridin-2-yl)propanamide] | > 6.30 | – |
| COc1ccc2nc(NC(=O)CC(C)(C)C)c(-c3cccc(OC(F)(F)F)c3)n2n1 [Compound 346, N-(6-methoxy-3-(3-(trifluoromethoxy)phenyl)imidazo[1,2-b]pyridazin-2-yl)-3,3-dimethylbutanamide] | > 6.30 | – |
| O=C(Nc1nc2ccc(C(F)(F)F)cn2c1C1CC1)C1CC1(F)F (centres unmarked) [Compound 85, N-(3-cyclopropyl-6-(trifluoromethyl)imidazo[1,2-a]pyridin-2-yl)-2,2-difluorocyclopropanecarboxamide] | – | pEC50 [2]: 5.52 to 6.30 |
| CC(CC(=O)Nc1nc2ccc(F)cn2c1-c1ccc(F)c(F)c1)C(F)(F)F (centres unmarked) [Compound 209, N-(3-(3,4-difluorophenyl)-6-fluoroimidazo[1,2-a]pyridin-2-yl)-4,4,4-trifluoro-3-methylbutanamide] | > 6.30 | – |
| CC(C)(C)CC(=O)Nc1nc2ccc(Cl)cn2c1-c1ccc(F)cc1 [Compound 130, N-(6-chloro-3-(4-fluorophenyl)imidazo[1,2-a]pyridin-2-yl)-3,3-dimethylbutanamide] | > 6.30 | – |
| Cc1ccc2nc(NC(=O)Cc3ccc(F)cc3)c(-c3cccc(OC(F)(F)F)c3)n2n1 [Compound 306, 2-(4-fluorophenyl)-N-(6-methyl-3-(3-(trifluoromethoxy)phenyl)imidazo[1,2-b]pyridazin-2-yl)acetamide] | > 6.30 | – |
| CC(CC(=O)Nc1nc2ccc(F)cn2c1-c1ccc(F)cc1)CC(C)(C)C (centres unmarked) [Compound 139, N-(6-fluoro-3-(4-fluorophenyl)imidazo[1,2-a]pyridin-2-yl)-3,5,5-trimethylhexanamide] | > 6.30 | – |

The next lines start with results.

| pEC50 [1] | SMILES | further results |
| --- | --- | --- |
| 5.52 to 6.30 | O=C(Nc1nc2ccc(F)cn2c1-c1cccc(Cl)c1)C1CCC1 [Compound 335, N-(3-(3-chlorophenyl)-6-fluoroimidazo[1,2-a]pyridin-2-yl)cyclobutanecarboxamide] | – |
| 5.52 to 6.30 | O=C(CC1CC1)Nc1nc2ccc(F)cn2c1-c1ccc(OC(F)(F)F)cc1 [Compound 171, 2-cyclopropyl-N-(6-fluoro-3-(4-(trifluoromethoxy)phenyl)imidazo[1,2-a]pyridin-2-yl)acetamide] | – |
| > 6.30 | CC1(CC(=O)Nc2nc3ccc(F)cn3c2-c2ccc(OC(F)(F)F)c(F)c2)CCCC1 [Compound 304, N-(6-fluoro-3-(3-fluoro-4-(trifluoromethoxy)phenyl)imidazo[1,2-a]pyridin-2-yl)-2-(1-methylcyclopentyl)acetamide] | – |
| > 6.30 | O=C(CCC1CC1)Nc1nc2ccc(F)cn2c1-c1cccc(OC(F)(F)F)c1 [Compound 274, 3-cyclopropyl-N-(6-fluoro-3-(3-(trifluoromethoxy)phenyl)imidazo[1,2-a]pyridin-2-yl)propanamide] | – |
| > 6.30 | O=C(Cc1ccc(F)cc1)Nc1nc2ccc(F)cn2c1-c1cccc(C(F)(F)F)c1 [Compound 164, N-(6-fluoro-3-(3-(trifluoromethyl)phenyl)imidazo[1,2-a]pyridin-2-yl)-2-(4-fluorophenyl)acetamide] | – |
| > 6.30 | O=C(CC1CCCC1)Nc1nc2ccc(F)cn2c1-c1ccc(OC(F)(F)F)c(F)c1 [Compound 311, 2-cyclopentyl-N-(6-fluoro-3-(3-fluoro-4-(trifluoromethoxy)phenyl)imidazo[1,2-a]pyridin-2-yl)acetamide] | – |
| 5.52 to 6.30 | O=C(CC1CC1)Nc1nc2ccc(F)cn2c1-c1cccc(C(F)(F)F)c1 [Compound 269, 2-cyclopropyl-N-(6-fluoro-3-(3-(trifluoromethyl)phenyl)imidazo[1,2-a]pyridin-2-yl)acetamide] | – |
| > 6.30 | CC(C)(C)CC(=O)Nc1nc2ccc(C(F)(F)F)cn2c1-c1ccc(F)cc1 [Compound 120, N-(3-(4-fluorophenyl)-6-(trifluoromethyl)imidazo[1,2-a]pyridin-2-yl)-3,3-dimethylbutanamide] | – |
| 5.52 to 6.30 | O=C(CCC(F)(F)F)Nc1nc2ccc(F)cn2c1-c1ccccc1 [Compound 97, 4,4,4-trifluoro-N-(6-fluoro-3-phenylimidazo[1,2-a]pyridin-2-yl)butanamide] | – |
